Data as given in patent US12496329B2, “Methods of using and compositions including an incretin analog” (Eli Lilly and Company, priority 2021, dated 2025).
Marks after values point to notes of the source that are not given here.

Assay: MAD study in individuals with diabetes: pharmacodynamics (OGTT, glucose, HbA1c, body weight, appetite VAS)
Format: in vivo, human
Set-up: OGIS Index, change from baseline / Disposition Index, change from baseline: unit not given here
Conditions: for Disposition Index, change from baseline / HOMA2-B, change from baseline / HOMA2-IR, change from baseline / Insulin Sensitivity Matsuda Index, change from baseline / Insulinogenic Index, change from baseline / OGIS Index, change from baseline / OGTT C-peptide AUC (0-2 hr), change from baseline / OGTT GCG AUC (0-2 hr), change from baseline / OGTT glucose AUC (0-2 hr), change from baseline / OGTT insulin AUC (0-2 hr), change from baseline / Daily mean plasma glucose, change from baseline / HbA1c, change from baseline: 1.5 mg Dula
Excerpt: Studies are designed to evaluate the safety, tolerability, PD and PK of the GGG tri-receptor agonist (SEQ ID NO:1) in individuals with diabetes. The MAD study is a randomized, investigator- and participant-blind, placebo-controlled, multiple-ascending dose, single-site study conducted in individuals with diabetes (i.e., females or males aged 20-70 years, inclusive, with T2DM for at least 3 months and HbA1c at lead-in and screening of ≥7.0% and ≤10.5% and treated with diet and exercise alone or a stable dose of metformin for at least 3 months prior to screening, with stable body weight for 3 months prior to randomization and with a BMI of 23-50 kg/m^2 at screening).
Dose escalation of the GGG tri-receptor agonist is assessed over 12 weeks in cohorts with a starting dose of 0.5 mg. One cohort of 13 individuals is administered 0.5 mg for 12 weeks. A second cohort of 13 individuals is administered 1.5 mg for 12 weeks. A third cohort of 15 individuals is administered 3.0 mg for 12 weeks. A fourth cohort of 15 individuals is administered 3.0 mg for 4 weeks and then administered 6.0 mg for 8 weeks. A fifth cohort of 16 individuals is administered 3.0 mg for 2 weeks, administered 6.0 mg for 2 weeks, administered 9.0 mg for 4 weeks, and then administered 12 mg for 4 weeks. Alternate dose increment steps may be introduced based on emerging safety and tolerability data from the preceding cohorts, and the dose increment steps can be reduced. As a non-limiting example, in Cohort 4, escalation from starting dose of 3 mg may occur via a step-through dose of 4.5 mg before attaining 6 mg, in Cohort 5, escalation from starting dose of 3 to 12 mg may occur via an additional step through dose level of 4.5 mg, prior to the planned doses 6 and 9 mg. In addition to these proposed alternate regimens in Cohort 4 and Cohort 5, planned dose for escalation between cohorts and within cohorts may be further reduced if warranted by safety or tolerability data.
C-peptide, glucagon, glucose and insulin are measured for an oral glucose tolerance test (OGTT) during the study using methods known in the art for each of the analytes. In addition, HbA1c is measured at Days 1, 29, 57, 78 and 85, as well as at Week 16. The following parameters are derived from the OGTT to assess insulin resistance and β cell function: Homeostatic model assessment (HOMA)-B, HOMA-IR, insulinogenic index, insulin sensitivity (Matsuda Index) and oral glucose insulin sensitivity (OGIS).
Insulin sensitivity is calculated as per the below equation: […]
Insulin sensitivity (Matsuda Index) is calculated as per the below equation: […]
Disposition index is calculated as (IGI*ISI).
OGIS is calculated as per the below equation: […]
Satiety VAS is measured after fasting on Days 1, 8, 15, 22, 29, 36, 43, 50, 57, 64, 71, 78 and 80, as well as at Week 16. Appetite sensations are assessed using a VAS for parameters of hunger, fullness, satiety and prospective food intake, and an overall appetite score is calculated as described above in the SAD study.

[1] = 1.5 mg dulaglutide, 12-week treatment

For dulaglutide, the “Disposition Index, change from baseline” value (Day 2) was 0.0812, the “HOMA2-B, change from baseline” value (Day 2) was 31.2 and the “HOMA2-IR, change from baseline” value (Day 2) was 0.360. For the same substance, the “Insulin Sensitivity Matsuda Index, change from baseline” value (Day 2) was −0.0208, the “Insulinogenic Index, change from baseline” value (shortened to “Insulinogenic Index, change”) (Day 2) was 0.119 and the “OGIS Index, change from baseline” value (Day 2) was 23.5. For the same substance, the “OGTT C-peptide AUC (0-2 hr), change from baseline” value (Day 2) was 879 pmol·h/L, the “OGTT GCG AUC (0-2 hr), change from baseline” value (“OGTT GCG AUC (0-2 hr), change” for short) (Day 2) was -1.21 pmol·h/L and the “OGTT glucose AUC (0-2 hr), change from baseline” value (Day 2) was -9.10 mmol·h/L. For the same substance, the “OGTT insulin AUC (0-2 hr), change from baseline” value (Day 2) was 322 pmol·h/L, the “Daily mean plasma glucose, change from baseline” value (Day 3) was −2.60* mmol/L and the “HbA1c, change from baseline” value (Day 29) was −0.646%. The “Disposition Index, change from baseline” value (Day 30) was 0.0866, the “HOMA2-B, change from baseline” value (Day 30) was 42.2 and the “HOMA2-IR, change from baseline” value (Day 30) was 0.480. For the same substance, the “Insulin Sensitivity Matsuda Index, change from baseline” value (Day 30) was −0.476, the “Insulinogenic Index, change” value (Day 30) was 0.130 and the “OGIS Index, change from baseline” value (Day 30) was 19.4. For the same substance, the “OGTT C-peptide AUC (0-2 hr), change from baseline” value (Day 30) was 1350 pmol·h/L, the “OGTT GCG AUC (0-2 hr), change” value (Day 30) was -4.52 pmol·h/L and the “OGTT glucose AUC (0-2 hr), change from baseline” value (Day 30) was -10.6 mmol·h/L. For the same substance, the “OGTT insulin AUC (0-2 hr), change from baseline” value (Day 30) was 519 pmol·h/L, the “Daily mean plasma glucose, change from baseline” value (Day 31) was −3.89* mmol/L and the “HbA1c, change from baseline” value (Day 57) was −0.997%. For the same substance, the “Daily mean plasma glucose, change from baseline” value (Day 59) was −3.21* mmol/L, the “HbA1c, change from baseline” value (Day 78) was −1.07% and the “Disposition Index, change from baseline” value (Day 79) was 0.0481. For the same substance, the “HOMA2-B, change from baseline” value (Day 79) was 25.9, the “HOMA2-IR, change from baseline” value (Day 79) was 0.600 and the “Insulin Sensitivity Matsuda Index, change from baseline” value (Day 79) was −1.14. The “Insulinogenic Index, change” value (Day 79) was 0.105, the “OGIS Index, change from baseline” value (Day 79) was 38.1 and the “OGTT C-peptide AUC (0-2 hr), change from baseline” value (Day 79) was 354 pmol·h/L. For the same substance, the “OGTT GCG AUC (0-2 hr), change” value (Day 79) was -1.28 pmol·h/L, the “OGTT glucose AUC (0-2 hr), change from baseline” value (Day 79) was -8.44 mmol·h/L and the “OGTT insulin AUC (0-2 hr), change from baseline” value (Day 79) was 188 pmol·h/L. The “Daily mean plasma glucose, change from baseline” value (Day 80) was −3.73* mmol/L, the “HbA1c, change from baseline” value (Day 85) was −0.960% and the “HbA1c, change from baseline” value (Day 106) was −0.538%. For the same substance, the fullness scores [1] was “increase from baseline”, the hunger scores [1] was “decrease from baseline” and the “prospective food consumption scores” value [1] was “greatest decreases from baseline”. The satiety scores [1] was “increase from baseline”, the “maximum decrease from baseline in mean body weight” value (1.5 mg, 12-weeks treatment) was 1.3 kg and the “decrease from baseline in mean waist circumference” value (1.5 mg, Day 85) was 4.9 cm.
